Assay results: patent US10710962B2, “Zwitterionic reagents” (Siemens Healthcare Diagnostics Inc., priority 2010, dated 2020)

Biological target: T1, BSA-NSP-DMAE (Bos taurus, UniProt P02769)
T1 construct: NSP-DMAE acridinium ester (chemical label attached through an amine-reactive NHS ester, about 1.4 per molecule)
Test: Zwitterion label incorporation into acridinium ester labeled BSA, measured by MALDI-TOF mass spectroscopy
Design: species or system bovine
Description: The zwitterion-containing compounds of the present invention may also be useful for lowering the non-specific binding of hydrophobic and ‘sticky’ proteins. In one experiment, the chemical competency of certain exemplary amine-reactive zwitterion-containing compounds shown in FIG. 1 were evaluated by treating an acridinium ester (e.g., 2′,6′-Dimethyl-4′-(N-succinimidyloxycarbonyl)phenyl 10-Methyl-9-acridinecarboxylate Methylsulfate (NSP-DMAE) or other suitable acridinium esters described by Law et al. in U.S. Pat. No. 5,656,426, which is incorporated herein by reference) labeled bovine serum albumin (BSA) or bovine gamma globulin (BGG) with 10 and 20 equivalents of the zwitterion-containing compound followed by measurement of the zwitterion-containing compound incorporation by mass spectroscopy. The detailed experimental protocol is described in Example 15.
A solution of BSA (4 mg, 60 nmoles) in 1 mL of 0.1 M sodium bicarbonate was treated with 5 equivalents of 2′,6′-Dimethyl-4′-(N-succinimidyloxycarboxnyl)phenyl 10-(3′-Sulfopropyl)-acridinium-9-carboxylate (NSP-DMAE-NHS) added as a solution in DMF (72 μL of a 2 mg/mL solution in DMF). The reaction was stirred at room temperature for 4 hours. The reaction was then transferred to a 4 mL amicon filter (MW 30,000 cutoff) and diluted with 3 mL de-ionized water. The filter was centrifuged at 4000G for 8 minutes to reduce the volume to about 0.25 mL. The final conjugate was diluted to 0.8 mL with de-ionized water to give a 5 mg/mL solution. Acridinium ester label incorporation, measured by MALDI-TOF mass spectroscopy using sinnapinic acid as matrix indicated the incorporation of 1.4 labels.
Further labeling of the acridinium ester-labeled BSA conjugate with the zwitterion labels 1d, 2c, 3c and 4c was carried out as follows. The conjugate (0.5 mg, 7.5 nmoles, 100 μL) was diluted with 100 μL of sodium carbonate, pH 9. To this conjugate, in four separate reactions, was added 10 equivalents of the four zwitterion labels 1d, 2c, 3c and 4c dissolved in DMSO corresponding to 12.8 μL of a 2.5 mg/mL solution of 1d; 16.5 μL of a 2 mg/mL solution of 2c; 16.5 μL of a 2 mg/mL solution of 3c and 14 μL of a 2.5 mg/mL solution of 4c. The reactions were stirred at room temperature for 4 hours and were then processed as described above.

T1 sequence (P02769 25-607): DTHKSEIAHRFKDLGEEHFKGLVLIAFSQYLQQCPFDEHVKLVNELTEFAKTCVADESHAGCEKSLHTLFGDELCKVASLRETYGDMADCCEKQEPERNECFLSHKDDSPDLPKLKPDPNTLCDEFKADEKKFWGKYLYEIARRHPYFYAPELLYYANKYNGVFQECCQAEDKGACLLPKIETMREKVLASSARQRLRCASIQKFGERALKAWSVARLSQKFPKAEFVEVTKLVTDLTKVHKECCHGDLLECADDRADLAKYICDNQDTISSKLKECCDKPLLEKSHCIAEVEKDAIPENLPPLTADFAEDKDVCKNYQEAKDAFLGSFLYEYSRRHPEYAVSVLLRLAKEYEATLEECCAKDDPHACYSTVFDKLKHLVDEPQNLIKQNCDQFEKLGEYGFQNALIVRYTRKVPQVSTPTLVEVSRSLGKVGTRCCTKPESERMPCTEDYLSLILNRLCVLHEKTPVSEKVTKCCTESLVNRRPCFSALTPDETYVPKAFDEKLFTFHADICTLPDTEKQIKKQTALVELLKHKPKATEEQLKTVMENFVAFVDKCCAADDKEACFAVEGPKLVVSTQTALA

Row | Structure (SMILES) | # of Zwitterion-Containing Compounds Incorporated by Conjugate (input 10 equivalents) | # of Zwitterion-Containing Compounds Incorporated by Conjugate (input 20 equivalents)
1 | C[N+](C)(CCCC(=O)Oc1c(F)c(F)c(F)c(F)c1F)CCCS(=O)(=O)[O-] [Compound 2c] | 5 | 8
2 | CCCOP(=O)([O-])OCC[N+](C)(C)CCCC(=O)Oc1c(F)c(F)c(F)c(F)c1F [Compound 4c] | 3.4 | 7.1
3 | C[N+](C)(CCCCS(=O)(=O)[O-])CCCC(=O)Oc1c(F)c(F)c(F)c(F)c1F [Compound 3c] | 3.3 | –
4 | C[N+](C)(CCCC(=O)Oc1c(F)c(F)c(F)c(F)c1F)CCS(=O)(=O)[O-] [Compound 1d] | 5 | –
